Measurements: US11566007B2, “Ras inhibitors” (Revolution Medicines, Inc., priority 2019, dated 2023)
pIC50: −log10 of the molar value.

Assays:
Format in all cases: biochemical
K-Ras G12C = K-Ras G12C (Homo sapiens (Human), UniProt P01116+P62937, G12C); assay: Ras-Raf (BRAF RBD) disruption / FRET / MOA assay, KRAS G12C; settings: KRAS G12C; Ras-Raf disruption/FRET/MOA assay; read-out: IC50* KRAS G12C FRET data
Procedure, shortened: (§1)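 Ternary complex formation (Ras–compound–cyclophilin A) displacing BRAF RBD, monitored by TR-FRET. Three hours at 25° C with compound (top 30 μM final), then 1.5 h with the labelled antibodies. Lower ratio than DMSO indicates disruption; IC50 reported.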

K-Ras G13C = K-Ras G13C (Homo sapiens (Human), UniProt P01116+P62937, G13C); assay: Ras-Raf (BRAF RBD) disruption / FRET / MOA assay, KRAS G13C; settings: KRAS G13C; Ras-Raf disruption/FRET/MOA assay; read-out: IC50* KRAS G13C FRET data
Procedure, shortened: as §1

KRAS G12S = KRAS G12S (Homo sapiens (Human), UniProt P01116+P62937, G12S); assay: Ras-Raf (BRAF RBD) disruption / FRET / MOA assay, KRAS G12S; settings: Ras-Raf disruption/FRET/MOA assay; class symbols; read-out: KRAS G12S FRET data IC50
Procedure, shortened: as §1

KRAS G12D = KRAS G12D (Homo sapiens (Human), UniProt P01116+P62937, G12D); assay: Ras-Raf (BRAF RBD) disruption / FRET / MOA assay, KRAS G12D; settings: Ras-Raf disruption/FRET/MOA assay; class symbols; read-out: KRAS G12D FRET data IC50
Procedure, shortened: as §1

KRAS G12V = KRAS G12V (Homo sapiens (Human), UniProt P01116+P62937, G12V); assay: Ras-Raf (BRAF RBD) disruption / FRET / MOA assay, KRAS G12V; settings: read-out: IC50* KRAS G12V FRET data
Procedure, shortened: as §1

KRAS WT = KRAS WT (Homo sapiens (Human), UniProt P01116+P62937); assay: Ras-Raf (BRAF RBD) disruption / FRET / MOA assay, KRAS WT; settings: read-out: IC50* KRAS WT FRET data
Procedure, shortened: as §1

KRAS G13D = KRAS G13D (Homo sapiens (Human), UniProt P01116+P62937, G13D); assay: Ras-Raf (BRAF RBD) disruption / FRET / MOA assay, KRAS G13D; settings: read-out: IC50* KRAS G13D FRET data
Procedure, shortened: as §1

NRAS G12C = NRAS G12C (Homo sapiens (Human), UniProt P01111+P62937, G12C); assay: Ras-Raf (BRAF RBD) disruption / FRET / MOA assay, NRAS G12C; settings: read-out: IC50* NRAS G12C FRET data
Procedure, shortened: as §1

NRAS Q61R = NRAS Q61R (Homo sapiens (Human), UniProt P01111+P62937, Q61R); assay: Ras-Raf (BRAF RBD) disruption / FRET / MOA assay, NRAS Q61R; settings: NRAS Q61R; Ras-Raf disruption/FRET/MOA assay; read-out: IC50* NRAS Q61R FRET data
Procedure, shortened: (§2)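 Compounds were tested as a 10-point 3-fold dilution series from 30 μM final for their ability to drive ternary complex formation between nucleotide-loaded Ras and cyclophilin A, displacing the BRAF RBD. After 3 h at 25° C., anti-His Eu-W1024 (10 nM) and anti-GST allophycocyanin (50 nM) were added for 1.5 h. A TR-FRET ratio decrease versus DMSO gave IC50.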

NRAS WT = NRAS WT (Homo sapiens (Human), UniProt P01111+P62937); assay: Ras-Raf (BRAF RBD) disruption / FRET / MOA assay, NRAS WT; settings: read-out: IC50* NRAS WT FRET data
Procedure, shortened: as §2

K-Ras G13C, sequence (P01116-2 other isoform, or with tags, fused parts or gaps G13C): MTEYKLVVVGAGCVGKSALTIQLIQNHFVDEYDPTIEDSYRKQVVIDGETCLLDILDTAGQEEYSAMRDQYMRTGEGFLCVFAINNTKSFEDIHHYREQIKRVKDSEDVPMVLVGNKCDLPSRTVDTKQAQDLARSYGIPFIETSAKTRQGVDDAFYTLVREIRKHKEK
K-Ras G13C, sequence (P62937 whole entry): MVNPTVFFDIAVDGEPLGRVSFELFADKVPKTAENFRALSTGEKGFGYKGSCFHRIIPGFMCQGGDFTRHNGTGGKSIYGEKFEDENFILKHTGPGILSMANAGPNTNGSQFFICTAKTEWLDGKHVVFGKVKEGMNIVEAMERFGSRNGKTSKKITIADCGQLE
NRAS Q61R, sequence (P01111 whole entry Q61R): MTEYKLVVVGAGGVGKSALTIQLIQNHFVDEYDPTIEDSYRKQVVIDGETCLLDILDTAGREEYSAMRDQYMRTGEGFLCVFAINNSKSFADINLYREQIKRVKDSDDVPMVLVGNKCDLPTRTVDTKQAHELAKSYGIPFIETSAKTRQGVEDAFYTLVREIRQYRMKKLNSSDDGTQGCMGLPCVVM
NRAS Q61R, sequence (P62937 whole entry): as the sequence (P62937 whole entry) above
K-Ras G12C, sequence (P01116-2 other isoform, or with tags, fused parts or gaps G12C): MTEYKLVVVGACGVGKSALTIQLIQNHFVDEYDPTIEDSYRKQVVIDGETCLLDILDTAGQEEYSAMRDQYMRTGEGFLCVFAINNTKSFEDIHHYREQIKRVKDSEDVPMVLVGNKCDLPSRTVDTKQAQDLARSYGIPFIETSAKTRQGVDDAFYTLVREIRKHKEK
K-Ras G12C, sequence (P62937 whole entry): as the sequence (P62937 whole entry) above
NRAS WT, sequence (P01111 whole entry): as the sequence (P01111 whole entry Q61R) above, with R61Q counted along it
NRAS WT, sequence (P62937 whole entry): as the sequence (P62937 whole entry) above
KRAS WT, sequence (P01116-2 other isoform, or with tags, fused parts or gaps): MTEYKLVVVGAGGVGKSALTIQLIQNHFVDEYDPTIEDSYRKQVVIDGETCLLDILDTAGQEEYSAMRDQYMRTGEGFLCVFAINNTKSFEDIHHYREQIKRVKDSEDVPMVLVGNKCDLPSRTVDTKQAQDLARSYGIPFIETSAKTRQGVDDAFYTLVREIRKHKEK
KRAS WT, sequence (P62937 whole entry): as the sequence (P62937 whole entry) above
KRAS G12V, sequence (P01116-2 other isoform, or with tags, fused parts or gaps G12V): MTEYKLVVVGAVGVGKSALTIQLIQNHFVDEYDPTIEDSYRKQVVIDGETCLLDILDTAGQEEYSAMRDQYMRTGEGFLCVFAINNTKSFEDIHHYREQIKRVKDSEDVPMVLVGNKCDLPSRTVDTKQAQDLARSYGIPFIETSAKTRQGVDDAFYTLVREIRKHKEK
KRAS G12V, sequence (P62937 whole entry): as the sequence (P62937 whole entry) above
KRAS G12D, sequence (P01116-2 other isoform, or with tags, fused parts or gaps G12D): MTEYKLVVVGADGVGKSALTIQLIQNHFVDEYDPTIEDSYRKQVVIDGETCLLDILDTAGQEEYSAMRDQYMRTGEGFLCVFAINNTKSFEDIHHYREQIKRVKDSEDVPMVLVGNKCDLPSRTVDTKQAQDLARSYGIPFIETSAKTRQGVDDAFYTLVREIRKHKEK
KRAS G12D, sequence (P62937 whole entry): as the sequence (P62937 whole entry) above
KRAS G12S, sequence (P01116-2 other isoform, or with tags, fused parts or gaps G12S): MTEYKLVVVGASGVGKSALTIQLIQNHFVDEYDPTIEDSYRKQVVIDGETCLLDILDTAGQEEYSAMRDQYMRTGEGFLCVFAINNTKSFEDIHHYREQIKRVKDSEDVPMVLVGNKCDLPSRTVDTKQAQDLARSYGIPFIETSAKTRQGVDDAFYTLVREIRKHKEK
KRAS G12S, sequence (P62937 whole entry): as the sequence (P62937 whole entry) above
KRAS G13D, sequence (P01116-2 other isoform, or with tags, fused parts or gaps G13D): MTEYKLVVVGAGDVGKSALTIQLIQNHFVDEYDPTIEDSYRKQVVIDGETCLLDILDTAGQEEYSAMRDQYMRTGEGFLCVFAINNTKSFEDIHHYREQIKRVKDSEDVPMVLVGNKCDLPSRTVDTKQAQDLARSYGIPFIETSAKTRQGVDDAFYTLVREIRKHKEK
KRAS G13D, sequence (P62937 whole entry): as the sequence (P62937 whole entry) above
NRAS G12C, sequence (P01111 whole entry G12C): as the sequence (P01111 whole entry Q61R) above, with G12C, R61Q counted along it
NRAS G12C, sequence (P62937 whole entry): as the sequence (P62937 whole entry) above

| Compound | pIC50 (K-Ras G12C) | pIC50 (K-Ras G13C) | pIC50 (KRAS G12S) | pIC50 (KRAS G12D) | pIC50 (KRAS G12V) | pIC50 (KRAS WT) | pIC50 (KRAS G13D) | pIC50 (NRAS G12C) | pIC50 (NRAS Q61R) | pIC50 (NRAS WT) |
| --- | --- | --- | --- | --- | --- | --- | --- | --- | --- | --- |
| CO[C@@H](C)c1ncccc1-c1c2c3cc(ccc3n1CC(F)(F)F)-c1cccc(c1)C[C@H](NC(=O)[C@H](C(C)C)N(C)C(=O)N1CCC3(CC1)CN(C(=O)/C=C/CN(C)C)C3)C(=O)N1CCC[C@H](N1)C(=O)OCC(C)(C)C2 (atropisomer, axis not shown) [Example A555] | 6.00 to 7.00 | 7.00 to 8.00 | 6.00 to 7.00 | 6.00 to 7.00 | 6.00 to 7.00 | 6.00 to 7.00 | 6.00 to 7.00 | 6.00 to 7.00 | 6.00 to 7.00 | 6.00 to 7.00 |
| CCn1c(-c2cccnc2[C@H](C)OC)c2c3cc(ccc31)-c1cccc(c1)C[C@H](NC(=O)[C@H](C(C)C)N1CC[C@@]3(CCN(C(=O)C#C[C@H]4COCCN4C4COC4)C3)C1=O)C(=O)N1CCC[C@H](N1)C(=O)OCC(C)(C)C2 (atropisomer, axis not shown) [Example A567] | 7.00 to 8.00 | 6.00 to 7.00 | 5.00 to 6.00 | 5.00 to 6.00 | 5.00 to 6.00 | 5.00 to 6.00 | 5.00 to 6.00 | 7.00 to 8.00 | 5.00 to 6.00 | 5.00 to 6.00 |
| C=CC(=O)N1CCO[C@H]2CN(C(=O)N(C)[C@H](C(=O)N[C@H]3Cc4coc(n4)-c4ccc5c(c4)c(c(-c4cccnc4[C@H](C)OC)n5CC(F)(F)F)CC(C)(C)COC(=O)[C@@H]4CCCN(N4)C3=O)C(C)C)C[C@H]21 (atropisomer, axis not shown) [Example A574] | 6.00 to 7.00 | 7.00 to 8.00 | 5.00 to 6.00 | < 5.00 | 5.00 to 6.00 | 5.00 to 6.00 | 5.00 to 6.00 | 7.00 to 8.00 | 5.00 to 6.00 | 5.00 to 6.00 |
| C=CC(=O)N1C[C@@H](N(C)C(=O)N(C)[C@H](C(=O)N[C@H]2Cc3nc(cs3)-c3ccc4c(c3)c(c(-c3cccnc3[C@H](C)OC)n4CC)CC(C)(C)COC(=O)[C@@H]3CCCN(N3)C2=O)C(C)C)[C@@H](C)C1 (atropisomer, axis not shown) [Example A583] | 6.00 to 7.00 | 6.00 to 7.00 | 6.00 to 7.00 | 5.00 to 6.00 | 5.00 to 6.00 | 6.00 to 7.00 | 5.00 to 6.00 | 6.00 to 7.00 | 6.00 to 7.00 | 6.00 to 7.00 |
| C=CC(=O)N1C[C@H](C)N(C(=O)N(C)[C@H](C(=O)N[C@H]2Cc3nc(cs3)-c3ccc4c(c3)c(c(-c3cccnc3[C@H](C)OC)n4CC)CC(C)(C)COC(=O)[C@@H]3CCCN(N3)C2=O)C(C)C)CC12CC2 (atropisomer, axis not shown) [Example A586] | 6.00 to 7.00 | 6.00 to 7.00 | 6.00 to 7.00 | 5.00 to 6.00 | 6.00 to 7.00 | 6.00 to 7.00 | 5.00 to 6.00 | 6.00 to 7.00 | 6.00 to 7.00 | 6.00 to 7.00 |
| C=CC(=O)N1C[C@@H](C)[C@H](N(C)C(=O)N(C)[C@H](C(=O)N[C@H]2Cc3nc(cs3)-c3ccc4c(c3)c(c(-c3cccnc3[C@H](C)OC)n4CC)CC(C)(C)COC(=O)[C@@H]3CCCN(N3)C2=O)C(C)C)C1 (atropisomer, axis not shown) [Example A588] | 6.00 to 7.00 | 5.00 to 6.00 | 5.00 to 6.00 | 5.00 to 6.00 | 5.00 to 6.00 | 5.00 to 6.00 | 5.00 to 6.00 | 6.00 to 7.00 | 5.00 to 6.00 | 5.00 to 6.00 |
| C=CC(=O)Nc1cnc(OC[C@H](C(=O)N[C@H]2Cc3cccc(c3)-c3ccc4c(c3)c(c(-c3cccnc3[C@H](C)OC)n4CC)CC(C)(C)COC(=O)[C@@H]3CCCN(N3)C2=O)C(C)C)n1C (atropisomer, axis not shown) [Example A600] | > 8.00 | 7.00 to 8.00 | 5.00 to 6.00 | 5.00 to 6.00 | 5.00 to 6.00 | 6.00 to 7.00 | 5.00 to 6.00 | > 8.00 | 5.00 to 6.00 | 6.00 to 7.00 |
| C=CC(=O)N1CCOC2(C1)CN(C(=O)N(C)[C@H](C(=O)N[C@H]1Cc3nc(cs3)-c3ccc4c(c3)c(c(-c3cccnc3[C@H](C)OC)n4CC(F)(F)F)CC(C)(C)COC(=O)[C@@H]3CCCN(N3)C1=O)C(C)C)C2 (atropisomer, axis not shown) [Example A604] | 6.00 to 7.00 | 7.00 to 8.00 | 6.00 to 7.00 | 5.00 to 6.00 | 6.00 to 7.00 | 6.00 to 7.00 | 5.00 to 6.00 | 6.00 to 7.00 | 6.00 to 7.00 | 6.00 to 7.00 |
| C=CC(=O)N1CCOC2(CCN(C(=O)N(C)[C@H](C(=O)N[C@H]3Cc4cc(CF)cc(c4)-c4ccc5c(c4)c(c(-c4cccnc4[C@H](C)OC)n5CC(F)(F)F)CC(C)(C)COC(=O)[C@@H]4CCCN(N4)C3=O)C(C)C)CC2)C1 (atropisomer, axis not shown) [Example A605] | 6.00 to 7.00 | 7.00 to 8.00 | 6.00 to 7.00 | 6.00 to 7.00 | 6.00 to 7.00 | 7.00 to 8.00 | 6.00 to 7.00 | 6.00 to 7.00 | 6.00 to 7.00 | 7.00 to 8.00 |
| C=CC(=O)N1CCOC2(CCN(C(=O)N(C)[C@H](C(=O)N[C@H]3Cc4cccc(c4)-c4ccc5c(c4)c(c(-c4cccnc4[C@H](C)OC)n5CC(F)(F)F)CC(C)(C)COC(=O)[C@@H]4CCCN(N4)C3=O)C(C)C)CC2)C1 (atropisomer, axis not shown) [Example A608] | 6.00 to 7.00 | 7.00 to 8.00 | 6.00 to 7.00 | 6.00 to 7.00 | 6.00 to 7.00 | 6.00 to 7.00 | 6.00 to 7.00 | 6.00 to 7.00 | 6.00 to 7.00 | 6.00 to 7.00 |
| C=CC(=O)N1CCC[C@@H]2CN(C(=O)N(C)[C@H](C(=O)N[C@H]3Cc4nc(cs4)-c4ccc5c(c4)c(c(-c4cccnc4[C@H](C)OC)n5CC)CC(C)(C)COC(=O)[C@@H]4CCCN(N4)C3=O)C(C)C)C[C@@H]21 (atropisomer, axis not shown) [Example A619] | 6.00 to 7.00 | 6.00 to 7.00 | 5.00 to 6.00 | 5.00 to 6.00 | 5.00 to 6.00 | 5.00 to 6.00 | 5.00 to 6.00 | 6.00 to 7.00 | 6.00 to 7.00 | 5.00 to 6.00 |
| CCn1c(-c2cccnc2[C@H](C)OC)c2c3cc(ccc31)-c1csc(n1)C[C@H](NC(=O)[C@H](C(C)C)N(C)C(=O)N1CCC3(CC1)CN(C(=O)/C=C/CF)C3)C(=O)N1CCC[C@H](N1)C(=O)OCC(C)(C)C2 (atropisomer, axis not shown) [Example A622] | 7.00 to 8.00 | 7.00 to 8.00 | 6.00 to 7.00 | 6.00 to 7.00 | 6.00 to 7.00 | 6.00 to 7.00 | 6.00 to 7.00 | 7.00 to 8.00 | 6.00 to 7.00 | 6.00 to 7.00 |
| CCn1c(-c2cccnc2[C@H](C)OC)c2c3cc(ccc31)-c1csc(n1)C[C@H](NC(=O)[C@@H](F)COC1CN(C(=O)C#CC(C)(C)N(C)C)C1)C(=O)N1CCC[C@H](N1)C(=O)OCC(C)(C)C2 (atropisomer, axis not shown) [Example A626] | > 8.00 | 5.00 to 6.00 | 5.00 to 6.00 | 5.00 to 6.00 | 5.00 to 6.00 | 5.00 to 6.00 | 5.00 to 6.00 | > 8.00 | 5.00 to 6.00 | 5.00 to 6.00 |
